Source: article PMC9949808 (eLife, 2023)

Assays:
PSII reaction centre = molecular target: T1, PSII reaction centre (Dunaliella salina, UniProt A0A1C8XRK9+D0FY08); assay: cryo-EM structure; type: binding; settings: type a inferred
T1 construct: gene psbA; native D1/D2 heterodimer in PSII C2S2 supercomplex purified from D. salina

[1] = molecular target: photosystem II (PSII) core, one of the two cores of the dimer (Dunaliella salina); assay: cryo-EM structure; native PSII purified from D. salina thylakoids (1% α-DM, sucrose gradient), in 25 mM MES pH 6.5, 1 mM CaCl2, 5 mM MgCl2, 0.1% α-DM; unstacked particles: C2S2 compact 2.43 Å, C2S2 stretched 2.62 Å, C2S 3.61 Å

Compound: C=Cc1c(C)c2cc3nc(c4c5[nH]c(cc6nc(cc1[nH]2)C(C)=C6CC)c(C)c5C(=O)[C@@H]4C(=O)OC)[C@@H](CCC(=O)OC/C=C(\C)CCC[C@H](C)CCC[C@H](C)CCCC(C)C)[C@@H]3C [pheophytin]
- cryo-EM structure (PSII reaction centre): PSII reaction centre chlorophylls (Chls), pheophytins, and quinone

Compound: photosystem II (PSII) core, one of the two cores of the dimer (complex)
- stoichiometry N [1]: 2
